Non-standard residues stand in square brackets, D forms with d. Residues, ends and D or L forms follow the SMILES beside them. *: point of attachment. Palmitoyl = CCCCCCCCCCCCCCCC(=O)*; Cit = NC(=O)NCCC[C@H](N)C(=O)O; Abu = CC[C@H](N)C(=O)O; Aib = CC(C)(N)C(=O)O; Ahx = NCCCCCC(=O)O
experiment: Visual (tube-tapping) assay of gel-forming capability and solubility; type: physicochemical; set-up: key to Gel-forming ability: Y: can form a liquid gel; N: lacks the ability to efficiently form a liquid gel; conditions: visual inspection of 11% peptide solutions, tube-tapping, 20 min after mixing
Experimental: To evaluate the ability of peptides to form gels in situ, we initially determined this tendency qualitatively based on visual examinations of peptide solutions using a tube-tapping method. In addition, we quantitatively determined the viscosity of select peptide solutions using a viscometer (Rheosense Inc; http://www.rheosense.com/products/viscometers) ([Yan and Pochan, 2010]). In the visual assay, aliquots of peptides were dissolved in an aqueous solution (i.e., de-ionized water, saline, or 5% glucose solution). The peptide that dissolved instantly and stayed as a clear solution without obvious macroscopic change in viscosity at 20 min after mixing was considered soluble. If macroscopic particles of peptides remained in the solution at 20 min after mixing, the peptide was considered insoluble.

Gel-forming ability | Compound
N | CCCCCCCCCCCCCCCC(=O)N[C@@H](CCCCN)C(=O)N[C@H](C(=O)N[C@@H](CCC(N)=O)C(=O)N[C@@H](CCCCN)C(=O)N[C@@H](CCCC)C(=O)N[C@@H](CO)C(=O)N[C@@H](C)C(=O)N1CCC[C@H]1C(=O)N[C@H](C(=O)N[C@@H](CC(=O)O)C(=O)N1CCC[C@H]1C(=O)N[C@@H](CO)C(=O)N[C@@H](CO)C(=O)N1CCC[C@H]1C(=O)N[C@@H](Cc1c[nH]cn1)C(=O)N[C@@H](CO)C(=O)N[C@@H](Cc1ccc(O)cc1)C(N)=O)C(C)C)C(C)C [ADE651F]
Y | CCCCCCCCCCCCCCCC(=O)N[C@@H](CCCCN)C(=O)N[C@H](C(=O)N[C@@H](CCC(N)=O)C(=O)N[C@@H](CCCCNC(=O)CCS)C(=O)N[C@@H](CC(C)C)C(=O)N[C@@H](CO)C(=O)N[C@@H](C)C(=O)N1CCC[C@H]1C(=O)N[C@H](C(=O)N[C@@H](CC(=O)O)C(=O)N1CCC[C@H]1C(=O)N[C@@H](CO)C(=O)N[C@@H](CO)C(=O)N1CCC[C@H]1C(=O)N[C@@H](Cc1c[nH]cn1)C(=O)N[C@@H](CO)C(=O)N[C@@H](Cc1ccc(O)cc1)C(N)=O)C(C)C)C(C)C [ADE651O]
N | CCCCCCCCCCCCCCCC(=O)N[C@@H](CCCCN)C(=O)N[C@H](C(=O)N[C@@H](CCC(N)=O)C(=O)N[C@@H](CCCCN)C(=O)NC(C)(C)C(=O)N[C@@H](CO)C(=O)N[C@@H](C)C(=O)N1CCC[C@H]1C(=O)N[C@H](C(=O)N[C@@H](CC(=O)O)C(=O)N1CCC[C@H]1C(=O)N[C@@H](CO)C(=O)N[C@@H](CO)C(=O)N1CCC[C@H]1C(=O)N[C@@H](Cc1c[nH]cn1)C(=O)N[C@@H](CO)C(=O)N[C@@H](Cc1ccc(O)cc1)C(N)=O)C(C)C)C(C)C [ADE651A] (Palmitoyl-KVQK[Aib]SAPVDPSSPHSY-NH2)
Y | CCCCCCCCCCCCCCCC(=O)N[C@@H](CCCCN)C(=O)N[C@H](C(=O)N[C@@H](CCC(N)=O)C(=O)N[C@@H](CCCCNC)C(=O)N[C@@H](CC(C)C)C(=O)N[C@@H](CO)C(=O)N[C@@H](C)C(=O)N1CCC[C@H]1C(=O)N[C@H](C(=O)N[C@@H](CC(=O)O)C(=O)N1CCC[C@H]1C(=O)N[C@@H](CO)C(=O)N[C@@H](CO)C(=O)N1CCC[C@H]1C(=O)N[C@@H](Cc1c[nH]cn1)C(=O)N[C@@H](CO)C(=O)N[C@@H](Cc1ccc(O)cc1)C(N)=O)C(C)C)C(C)C [ADE651L]
N | CCCCCCCCCCCCCCCC(=O)N[C@@H](CCCCN)C(=O)N[C@H](C(=O)N[C@@H](CCC(N)=O)C(=O)N[C@@H](CCCCN)C(=O)N[C@@H](CC)C(=O)N[C@@H](CO)C(=O)N[C@@H](C)C(=O)N1CCC[C@H]1C(=O)N[C@H](C(=O)N[C@@H](CC(=O)O)C(=O)N1CCC[C@H]1C(=O)N[C@@H](CO)C(=O)N[C@@H](CO)C(=O)N1CCC[C@H]1C(=O)N[C@@H](Cc1c[nH]cn1)C(=O)N[C@@H](CO)C(=O)N[C@@H](Cc1ccc(O)cc1)C(N)=O)C(C)C)C(C)C [ADE651I] (Palmitoyl-KVQK[Abu]SAPVDPSSPHSY-NH2)
N | CCCCCCCCCCCCCCCC(=O)N[C@@H](CCCCN)C(=O)N[C@H](C(=O)N[C@@H](CCC(N)=O)C(=O)N[C@@H](CCCCN)C(=O)NCCCCCC(=O)N[C@@H](CO)C(=O)N[C@@H](C)C(=O)N1CCC[C@H]1C(=O)N[C@H](C(=O)N[C@@H](CC(=O)O)C(=O)N1CCC[C@H]1C(=O)N[C@@H](CO)C(=O)N[C@@H](CO)C(=O)N1CCC[C@H]1C(=O)N[C@@H](Cc1c[nH]cn1)C(=O)N[C@@H](CO)C(=O)N[C@@H](Cc1ccc(O)cc1)C(N)=O)C(C)C)C(C)C [ADE651B] (Palmitoyl-KVQK[Ahx]SAPVDPSSPHSY-NH2)
N | CCCCCCCCCCCCCCCC(=O)N[C@@H](CCCCN)C(=O)N[C@H](C(=O)N[C@@H](CCC(N)=O)C(=O)N[C@@H](CCCCN)C(=O)N[C@@H](CCCNC(N)=O)C(=O)N[C@@H](CO)C(=O)N[C@@H](C)C(=O)N1CCC[C@H]1C(=O)N[C@H](C(=O)N[C@@H](CC(=O)O)C(=O)N1CCC[C@H]1C(=O)N[C@@H](CO)C(=O)N[C@@H](CO)C(=O)N1CCC[C@H]1C(=O)N[C@@H](Cc1c[nH]cn1)C(=O)N[C@@H](CO)C(=O)N[C@@H](Cc1ccc(O)cc1)C(N)=O)C(C)C)C(C)C [ADE651D] (Palmitoyl-KVQK[Cit]SAPVDPSSPHSY-NH2)

From article PMC9772450, “Gel-forming antagonist provides a lasting effect on CGRP-induced vasodilation” (Frontiers in Pharmacology, 2022)
